The record followed here is paper PMC9021566, “Design, Synthesis, and Antitumor Activity Study of All-Hydrocarbon-Stapled B1-Leu Peptides” (Frontiers in Chemistry, 2022).

Where two headings read alike, the source gives them in different places.

For data set [1] the following is noted: the molecule shown is the open-chain precursor, resin.
Data set [2] in a line: On-resin ring-closing olefin metathesis (all-hydrocarbon stapling, S5/S5 i,i+4 or R8/S5 i,i+7), first-generation Grubbs catalyst (3 equiv); then Fmoc removal, TFA cleavage, RP-HPLC. The following applies: the molecule shown is the open-chain precursor, 25.0 °C, 4.0 h.
Where [3] appears, read: 21-membered ring, 1,2-dichloroethane (dry).

In data set [1] (33-membered ring), `C=CCCCCCC[C@@](C)(NC(=O)[C@H](Cc1ccccc1)NC(=O)[C@H](CCCNC(=N)NS(=O)(=O)c1c(C)c(C)c2c(c1C)CC(C)(C)O2)NC(=O)[C@H](CCCCNC(=O)OC(C)(C)C)NC(=O)[C@@H](NC(=O)OCC1c2ccccc2-c2ccccc21)C(C)C)C(=O)N[C@@H](CCCCNC(=O)OC(C)(C)C)C(=O)N[C@@H](Cc1ccccc1)C(=O)N[C@@H](Cc1ccccc1)C(=O)N[C@@H](CCCNC(=N)NS(=O)(=O)c1c(C)c(C)c2c(c1C)CC(C)(C)O2)C(=O)N[C@@H](CCCCNC(=O)OC(C)(C)C)C(=O)N[C@@H](CC(C)C)C(=O)N[C@@](C)(CCCC=C)C(=O)N[C@@H](CCCCNC(=O)OC(C)(C)C)C(=O)N[C@@H](CC(C)C)C(=O)N[C@H](C(N)=O)C(C)C` showed a ring closure, overall yield of 65%.

The compound `C=CCCC[C@](C)(NC(=O)[C@H](CCCCNC(=O)OC(C)(C)C)NC(=O)[C@H](Cc1ccccc1)NC(=O)[C@H](CCCNC(=N)NS(=O)(=O)c1c(C)c(C)c2c(c1C)CC(C)(C)O2)NC(=O)[C@](C)(CCCC=C)NC(=O)[C@@H](NC(=O)OCC1c2ccccc2-c2ccccc21)C(C)C)C(=O)N[C@@H](Cc1ccccc1)C(=O)N[C@@H](Cc1ccccc1)C(=O)N[C@@H](CCCNC(=N)NS(=O)(=O)c1c(C)c(C)c2c(c1C)CC(C)(C)O2)C(=O)N[C@@H](CCCCNC(=O)OC(C)(C)C)C(=O)N[C@@H](CC(C)C)C(=O)N[C@@H](CCCCNC(=O)OC(C)(C)C)C(=O)N[C@@H](CCCCNC(=O)OC(C)(C)C)C(=O)N[C@@H](CC(C)C)C(=O)N[C@H](C(N)=O)C(C)C` yielded a ring closure, overall yield in data set [1] (21-membered ring) of 65%.

For `C=CCCC[C@](C)(NC(=O)[C@H](Cc1ccccc1)NC(=O)[C@H](Cc1ccccc1)NC(=O)[C@H](CCCCNC(=O)OC(C)(C)C)NC(=O)[C@H](CCCCNC(=O)OC(C)(C)C)NC(=O)[C@H](Cc1ccccc1)NC(=O)[C@H](CCCNC(=N)NS(=O)(=O)c1c(C)c(C)c2c(c1C)CC(C)(C)O2)NC(=O)[C@H](CCCCNC(=O)OC(C)(C)C)NC(=O)[C@@H](NC(=O)OCC1c2ccccc2-c2ccccc21)C(C)C)C(=O)N[C@@H](CCCCNC(=O)OC(C)(C)C)C(=O)N[C@@H](CC(C)C)C(=O)N[C@@H](CCCCNC(=O)OC(C)(C)C)C(=O)N[C@@](C)(CCCC=C)C(=O)N[C@@H](CC(C)C)C(=O)N[C@H](C(N)=O)C(C)C`, the ring closure, overall yield in data set [2] (setting [3]) came to 68%.

On to `C=CCCCCCC[C@@](C)(NC(=O)[C@H](CCCCNC(=O)OC(C)(C)C)NC(=O)[C@H](Cc1ccccc1)NC(=O)[C@H](CCCNC(=N)NS(=O)(=O)c1c(C)c(C)c2c(c1C)CC(C)(C)O2)NC(=O)[C@H](CCCCNC(=O)OC(C)(C)C)NC(=O)[C@@H](NC(=O)OCC1c2ccccc2-c2ccccc21)C(C)C)C(=O)N[C@@H](Cc1ccccc1)C(=O)N[C@@H](Cc1ccccc1)C(=O)N[C@@H](CCCNC(=N)NS(=O)(=O)c1c(C)c(C)c2c(c1C)CC(C)(C)O2)C(=O)N[C@@H](CCCCNC(=O)OC(C)(C)C)C(=O)N[C@@H](CC(C)C)C(=O)N[C@@H](CCCCNC(=O)OC(C)(C)C)C(=O)N[C@@](C)(CCCC=C)C(=O)N[C@@H](CC(C)C)C(=O)N[C@H](C(N)=O)C(C)C`, for which, in data set [2] (33-membered ring, 1,2-dichloroethane (dry)), the ring closure, overall yield is 62%.

`C=CCCC[C@](C)(NC(=O)[C@H](Cc1ccccc1)NC(=O)[C@H](Cc1ccccc1)NC(=O)[C@H](CCCCNC(=O)OC(C)(C)C)NC(=O)[C@](C)(CCCC=C)NC(=O)[C@H](Cc1ccccc1)NC(=O)[C@H](CCCNC(=N)NS(=O)(=O)c1c(C)c(C)c2c(c1C)CC(C)(C)O2)NC(=O)[C@H](CCCCNC(=O)OC(C)(C)C)NC(=O)[C@@H](NC(=O)OCC1c2ccccc2-c2ccccc21)C(C)C)C(=O)N[C@@H](CCCCNC(=O)OC(C)(C)C)C(=O)N[C@@H](CC(C)C)C(=O)N[C@@H](CCCCNC(=O)OC(C)(C)C)C(=O)N[C@@H](CCCCNC(=O)OC(C)(C)C)C(=O)N[C@@H](CC(C)C)C(=O)N[C@H](C(N)=O)C(C)C`: the ring closure, overall yield in data set [2] (setting [3]) amounted to 64%.
